Measurements from patent US20090098529A1 (priority 2006, published 2009).
Read-outs that look alike come from different tables or passages of the source.

Tests used:
Conditions in all cases: mouse, in vivo
PANC-1 tumors [1] = test system: PANC-1 tumors; parameters: species or system nude mice
A549 tumors = test system: A549 tumors; parameters: species or system nude mice
PANC-1 tumors [2] = test system: PANC-1 tumors; parameters: species or system nude mice; remark: listed apart in the source
GI-101A tumors = test system: GI-101A tumors

Nc1ccn([C@@H]2O[C@H](CO)[C@@H](O)C2(F)F)c(=O)n1 [Gemcitabine]
Effect on tumor growth (PANC-1 tumors [1]): moderately decreased tumor growth | Effect on tumor growth (A549 tumors): actually increased tumor growth

N.N.[Cl][Pt][Cl] [Cisplatin, cis-diamminedichloroplatinum]
Effect on tumor growth (PANC-1 tumors [2]): unable to arrest tumor growth

Nc1ccn(C[C@@H](CO)OCP(=O)(O)O)c(=O)n1 [cidofovir]
Interference with tumor therapy by the virus (GI-101A tumors): did not significantly interfere with tumor therapy by the virus | Survival time of GLV-1h74 injected mice (GI-101A tumors): significantly extended the survival time
